Results reported in US6562851B2, “Substituted bicyclic compounds” (Aventis Pharma Limited, priority 1999, dated 2003).

Cc1ccccc1Nc1nc2cc(CC(=O)Nc3ccc(C(CC(=O)O)NC(=O)CCCC(=O)O)cc3)ccc2o1 (stereo not shown) [Example 4, 4-(2-Carboxy-1-{4-[2-(2-o-tolylamino-benzoxazol-5-yl)-acetylamino]-phenyl}-ethylcarbamoyl)-butyric Acid]
melting point: 255.6 to 257.1 °C
